Test results: publication PMC7531004, “Discovery of gramicidin A analogues with altered activities by multidimensional screening of a one-bead-one-compound library” (Nature Communications, 2020)
Where a SMILES comes first, the peptide text is derived from it. [ ]: non-standard residue; d: D form. The star is where a group is joined. NHCH2CH2OH = OCCN*; For = O=C*

What was measured:
[1] = H+/Na+ transport assay of bead-derived peptides (one-point); format: biochemical; design: key: relative activity; mean of two control wells = 1.00; details: bead-derived peptide solution, EYPC/EYPG LUVs;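 further: relative to parent gramicidin A activity set to 1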
In short: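 H+/Na+ transport is monitored through pyranine fluorescence in freshly extruded LUVs after a 30-min room-temperature vortex with each library peptide at a single concentration. Signals are normalized to detergent (Triton X-100) and untreated controls.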

[2] = system: P388 mouse leukemia cells; details: 92 h
In short: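 P388 cells at 1 × 10^4 cells/mL (final) were exposed to library peptides (stocks diluted 250-fold in RPMI1640/10% FBS) for 92 h at 37 °C, 5% CO2. Viable cells were counted by WST-1/1-methoxy PMS (4 h), absorbance 415 nm, and expressed as cell viability (%).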

[3] = system: Streptococcus pyogenes SSI-9; experiment: Antibacterial activity assay of bead-derived peptides (three concentrations); format: cell-based; design: key: +++: inhibition by the 640-fold diluted peptide solution; ++: inhibition by the 160-fold diluted solution; +: inhibition by the 40-fold diluted solution; -: no inhibition; details: S. pyogenes, bead-derived peptide solution, three concentrations
In short: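 Library peptide stock applied undiluted, 4-fold and 16-fold diluted in DMSO to S. pyogenes SSI-9 (2 × 10^5 CFU) in cation-adjusted Mueller Hinton broth with 5% laked horse blood. After 18 h at 37 °C, growth judged by visible cell precipitation.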

Question: For `CC(C)C[C@@H](NC(=O)[C@@H](NC(=O)[C@H](NC(=O)[C@H](C)NC(=O)[C@H](NC(=O)[C@H](C)NC(=O)CNC(=O)[C@@H](NC=O)C(C)C)[C@H](C)O)C(C)C)C(C)C)C(=O)N[C@@H](Cc1c[nH]c2ccccc12)C(=O)N[C@@H](C(=O)N[C@@H](Cc1c[nH]c2ccccc12)C(=O)N[C@@H](C(=O)N[C@@H](Cc1c[nH]c2ccccc12)C(=O)N[C@@H](C(=O)N[C@@H](Cc1c[nH]c2ccccc12)C(=O)NCCO)C(C)C)C(C)C)C(C)C` [compound 5623] (For-VGA[dT]A[dV]V[dL]W[dV]W[dV]W[dV]W-NHCH2CH2OH), which “H+/Na+ transport activity normalized against the value of 1 (1.00)” value (shortened to “H+/Na+ transport activity normalized”) [1] is on record?
Answer: 1.11

Question: And the cell viability/% [2]?
Answer: 80.0%

Question: And the antibacterial activity [3]?
Answer: -

Question: Which results are given for `CC(C)C[C@@H](NC(=O)[C@H](C)NC(=O)[C@H](NC(=O)[C@H](C)NC(=O)CNC(=O)[C@@H](NC=O)C(C)C)C(C)C)C(=O)N[C@H](C(=O)N[C@@H](C(=O)N[C@@H](Cc1c[nH]c2ccccc12)C(=O)N[C@H](CC(C)C)C(=O)N[C@@H](Cc1c[nH]c2ccccc12)C(=O)N[C@@H](C(=O)N[C@@H](Cc1c[nH]c2ccccc12)C(=O)N[C@H](CC(C)C)C(=O)N[C@@H](Cc1c[nH]c2ccccc12)C(=O)NCCO)C(C)C)C(C)C)C(C)C` [compound 660] (For-VGA[dV]A[dL]V[dV]W[dL]W[dV]W[dL]W-NHCH2CH2OH)?
Answer: H+/Na+ transport activity normalized against the value of 1 (1.00) [1]: 1.06; cell viability/% [2]: 15.6%; antibacterial activity [3]: ++

Question: For `CC(C)C[C@@H](NC(=O)[C@H](C)NC(=O)CNC(=O)[C@@H](NC=O)C(C)C)C(=O)N[C@@H](C)C(=O)N[C@H](CC(C)C)C(=O)N[C@H](C(=O)N[C@H](CC(C)C)C(=O)N[C@@H](Cc1c[nH]c2ccccc12)C(=O)N[C@H](CC(C)C)C(=O)N[C@@H](Cc1c[nH]c2ccccc12)C(=O)N[C@H](CC(C)C)C(=O)N[C@@H](Cc1c[nH]c2ccccc12)C(=O)N[C@@H](C(=O)N[C@@H](Cc1c[nH]c2ccccc12)C(=O)NCCO)C(C)C)C(C)C` [compound 8635] (For-VGA[dL]A[dL]V[dL]W[dL]W[dL]W[dV]W-NHCH2CH2OH), which “H+/Na+ transport activity normalized” value [1] is on record?
Answer: 1.05

Question: What about the cell viability/% [2] of the same compound?
Answer: 6.4%

Question: What about the antibacterial activity [3] of the same compound?
Answer: +

Question: Which results are given for `CC(C)C[C@@H](NC(=O)[C@H](C)NC(=O)CNC(=O)[C@@H](NC=O)C(C)C)C(=O)N[C@@H](C)C(=O)N[C@@H](C(=O)N[C@H](C(=O)N[C@H](CC(C)C)C(=O)N[C@@H](Cc1c[nH]c2ccccc12)C(=O)N[C@@H](C(=O)N[C@@H](Cc1c[nH]c2ccccc12)C(=O)N[C@@H](C(=O)N[C@@H](Cc1c[nH]c2ccccc12)C(=O)N[C@@H](C(=O)N[C@@H](Cc1c[nH]c2ccccc12)C(=O)NCCO)[C@H](C)O)C(C)C)C(C)C)C(C)C)C(C)C` [compound 12984] (For-VGA[dL]A[dV]V[dL]W[dV]W[dV]W[dT]W-NHCH2CH2OH)?
Answer: H+/Na+ transport activity normalized against the value of 1 (1.00) [1]: 1.08; cell viability/% [2]: 81.1%; antibacterial activity [3]: -

Question: What does the source list for `CC(C)C[C@@H](NC(=O)[C@H](C)NC(=O)CNC(=O)[C@@H](NC=O)C(C)C)C(=O)N[C@@H](C)C(=O)N[C@H](CC(C)C)C(=O)N[C@H](C(=O)N[C@H](CC(C)C)C(=O)N[C@@H](Cc1c[nH]c2ccccc12)C(=O)N[C@@H](C(=O)N[C@@H](Cc1c[nH]c2ccccc12)C(=O)N[C@H](CC(C)C)C(=O)N[C@@H](Cc1c[nH]c2ccccc12)C(=O)N[C@@H](C(=O)N[C@@H](Cc1c[nH]c2ccccc12)C(=O)NCCO)C(C)C)[C@H](C)O)C(C)C` [compound 7480] (For-VGA[dL]A[dL]V[dL]W[dT]W[dL]W[dV]W-NHCH2CH2OH)?
Answer: H+/Na+ transport activity normalized against the value of 1 (1.00) [1]: 1.01; cell viability/% [2]: 100.0%; antibacterial activity [3]: -

Question: With `CC(C)C[C@@H](NC(=O)[C@H](C)NC(=O)[C@H](NC(=O)[C@H](C)NC(=O)CNC(=O)[C@@H](NC=O)C(C)C)C(C)C)C(=O)N[C@H](C(=O)N[C@H](CC(C)C)C(=O)N[C@@H](Cc1c[nH]c2ccccc12)C(=O)N[C@H](CC(C)C)C(=O)N[C@@H](Cc1c[nH]c2ccccc12)C(=O)N[C@H](CC(C)C)C(=O)N[C@@H](Cc1c[nH]c2ccccc12)C(=O)N[C@@H](C(=O)N[C@@H](Cc1c[nH]c2ccccc12)C(=O)NCCO)[C@H](C)O)C(C)C` [compound 3365] (For-VGA[dV]A[dL]V[dL]W[dL]W[dL]W[dT]W-NHCH2CH2OH) as the compound, how does the “H+/Na+ transport activity normalized” value [1] read?
Answer: 1.03

Question: What about the cell viability/% [2] of the same compound?
Answer: 100.0%

Question: What about the antibacterial activity [3] of the same compound?
Answer: +

Question: Which results are given for `CC(C)C[C@@H](NC(=O)[C@H](C)NC(=O)CNC(=O)[C@@H](NC=O)C(C)C)C(=O)N[C@@H](C)C(=O)N[C@H](CC(C)C)C(=O)N[C@H](C(=O)N[C@@H](C(=O)N[C@@H](Cc1c[nH]c2ccccc12)C(=O)N[C@@H](C(=O)N[C@@H](Cc1c[nH]c2ccccc12)C(=O)N[C@@H](C(=O)N[C@@H](Cc1c[nH]c2ccccc12)C(=O)N[C@H](CC(C)C)C(=O)N[C@@H](Cc1c[nH]c2ccccc12)C(=O)NCCO)C(C)C)C(C)C)[C@H](C)O)C(C)C` [compound 7548] (For-VGA[dL]A[dL]V[dT]W[dV]W[dV]W[dL]W-NHCH2CH2OH)?
Answer: H+/Na+ transport activity normalized against the value of 1 (1.00) [1]: 1.08; cell viability/% [2]: 100.0%; antibacterial activity [3]: -

Question: For `CC(C)C[C@@H](NC(=O)[C@H](Cc1c[nH]c2ccccc12)NC(=O)[C@H](NC(=O)[C@H](Cc1c[nH]c2ccccc12)NC(=O)[C@H](NC(=O)[C@H](Cc1c[nH]c2ccccc12)NC(=O)[C@H](NC(=O)[C@@H](NC(=O)[C@H](NC(=O)[C@H](C)NC(=O)[C@H](NC(=O)[C@H](C)NC(=O)CNC(=O)[C@@H](NC=O)C(C)C)C(C)C)[C@H](C)O)C(C)C)C(C)C)C(C)C)C(C)C)C(=O)N[C@@H](Cc1c[nH]c2ccccc12)C(=O)NCCO` [compound 5164] (For-VGA[dV]A[dT]V[dV]W[dV]W[dV]W[dL]W-NHCH2CH2OH), which “H+/Na+ transport activity normalized” value [1] is on record?
Answer: 1.19

Question: And the cell viability/% [2]?
Answer: 100.0%

Question: And the antibacterial activity [3]?
Answer: -

Question: Which results are given for `CC(C)C[C@@H](NC(=O)[C@H](C)NC(=O)CNC(=O)[C@@H](NC=O)C(C)C)C(=O)N[C@@H](C)C(=O)N[C@H](CC(C)C)C(=O)N[C@H](C(=O)N[C@@H](C(=O)N[C@@H](Cc1c[nH]c2ccccc12)C(=O)N[C@@H](C(=O)N[C@@H](Cc1c[nH]c2ccccc12)C(=O)N[C@H](CC(C)C)C(=O)N[C@@H](Cc1c[nH]c2ccccc12)C(=O)N[C@H](CC(C)C)C(=O)N[C@@H](Cc1c[nH]c2ccccc12)C(=O)NCCO)C(C)C)[C@H](C)O)C(C)C` [compound 10710] (For-VGA[dL]A[dL]V[dT]W[dV]W[dL]W[dL]W-NHCH2CH2OH)?
Answer: H+/Na+ transport activity normalized against the value of 1 (1.00) [1]: 1.05; cell viability/% [2]: 100.0%; antibacterial activity [3]: -

Question: What does the source list for `CC(C)C[C@@H](NC(=O)[C@H](Cc1c[nH]c2ccccc12)NC(=O)[C@H](NC(=O)[C@H](Cc1c[nH]c2ccccc12)NC(=O)[C@@H](CC(C)C)NC(=O)[C@@H](NC(=O)[C@H](NC(=O)[C@H](C)NC(=O)[C@H](NC(=O)[C@H](C)NC(=O)CNC(=O)[C@@H](NC=O)C(C)C)[C@H](C)O)C(C)C)C(C)C)C(C)C)C(=O)N[C@@H](Cc1c[nH]c2ccccc12)C(=O)N[C@@H](C(=O)N[C@@H](Cc1c[nH]c2ccccc12)C(=O)NCCO)C(C)C` [compound 6116] (For-VGA[dT]A[dV]V[dL]W[dV]W[dL]W[dV]W-NHCH2CH2OH)?
Answer: H+/Na+ transport activity normalized against the value of 1 (1.00) [1]: 1.13; cell viability/% [2]: 93.5%; antibacterial activity [3]: -

Question: Which results are given for `CC(C)C[C@@H](NC(=O)[C@H](C)NC(=O)[C@H](NC(=O)[C@H](C)NC(=O)CNC(=O)[C@@H](NC=O)C(C)C)[C@H](C)O)C(=O)N[C@H](C(=O)N[C@@H](C(=O)N[C@@H](Cc1c[nH]c2ccccc12)C(=O)N[C@H](CC(C)C)C(=O)N[C@@H](Cc1c[nH]c2ccccc12)C(=O)N[C@H](CC(C)C)C(=O)N[C@@H](Cc1c[nH]c2ccccc12)C(=O)N[C@@H](C(=O)N[C@@H](Cc1c[nH]c2ccccc12)C(=O)NCCO)C(C)C)C(C)C)C(C)C` [compound 5522] (For-VGA[dT]A[dL]V[dV]W[dL]W[dL]W[dV]W-NHCH2CH2OH)?
Answer: H+/Na+ transport activity normalized against the value of 1 (1.00) [1]: 1.27; cell viability/% [2]: 100.0%; antibacterial activity [3]: -

Question: Which results are given for `CC(C)C[C@@H](NC(=O)[C@H](C)NC(=O)CNC(=O)[C@@H](NC=O)C(C)C)C(=O)N[C@@H](C)C(=O)N[C@@H](C(=O)N[C@H](C(=O)N[C@@H](C(=O)N[C@@H](Cc1c[nH]c2ccccc12)C(=O)N[C@@H](C(=O)N[C@@H](Cc1c[nH]c2ccccc12)C(=O)N[C@@H](C(=O)N[C@@H](Cc1c[nH]c2ccccc12)C(=O)N[C@@H](C(=O)N[C@@H](Cc1c[nH]c2ccccc12)C(=O)NCCO)C(C)C)C(C)C)C(C)C)C(C)C)C(C)C)C(C)C` [compound 7516] (For-VGA[dL]A[dV]V[dV]W[dV]W[dV]W[dV]W-NHCH2CH2OH)?
Answer: H+/Na+ transport activity normalized against the value of 1 (1.00) [1]: 1.03; cell viability/% [2]: 100.0%; antibacterial activity [3]: +

Question: What does the source list for `CC(C)C[C@@H](NC(=O)[C@H](Cc1c[nH]c2ccccc12)NC(=O)[C@H](NC(=O)[C@@H](NC(=O)[C@H](NC(=O)[C@H](C)NC(=O)[C@H](NC(=O)[C@H](C)NC(=O)CNC(=O)[C@@H](NC=O)C(C)C)[C@H](C)O)C(C)C)C(C)C)C(C)C)C(=O)N[C@@H](Cc1c[nH]c2ccccc12)C(=O)N[C@@H](C(=O)N[C@@H](Cc1c[nH]c2ccccc12)C(=O)N[C@@H](C(=O)N[C@@H](Cc1c[nH]c2ccccc12)C(=O)NCCO)C(C)C)C(C)C` [compound 12298] (For-VGA[dT]A[dV]V[dV]W[dL]W[dV]W[dV]W-NHCH2CH2OH)?
Answer: H+/Na+ transport activity normalized against the value of 1 (1.00) [1]: 1.04; cell viability/% [2]: 100.0%; antibacterial activity [3]: -
